Series [1] has as its system maltose/trehalose conversion enzyme derived from Pseudomonas putida H262. The class given is biochemical. The procedure: (§1) Maltose/trehalose conversion enzymes are assayed as follows: 1 ml of 20 w/v % maltose as substrate in 10 mM phosphate buffer (pH7.0) is added with 1 ml enzyme liquid, allowed to react at 25° C., 35° C. or 60° C. for 60 minutes and heated at 100° C. for 10 minutes to suspend the reaction. The reaction liquid is accurately diluted by 11-times in 50 mM phosphate buffer (pH7.5) and 0.4 ml of the diluted liquid is added with 0.1 ml of 1 unit/ml trehalase solution, incubated at 45° C. for 120 minutes and determined for glucose level by the glucose oxidase method. […] The amount of the trehalose formed by maltose/trehalose conversion enzyme is estimated with the increased amount of glucose as determined by the above measurement and one unit of the enzyme is defined as the amount of enzyme that forms one micromole of trehalose for one minute.
Effects of temperature and pH on the activity of the enzyme were investigated in accordance with the assay method. […] The thermal stability of the enzyme was determined by incubating the enzyme in 50 mM phosphate buffer (pH7.0) at different temperatures for 60 minutes, cooling with water and assaying the residual activities. While the pH stability was determined by incubating at 35° C. for 60 minutes in 50 mM phosphate buffer with different pH levels, adjusting to pH7.0 and assaying the residual enzyme activities.

Series [2] concerns the target T1, maltose/trehalose conversion enzyme derived from Pimelobacter species R48 (Pimelobacter sp., UniProt P72235).
T1 construct: The culture obtained in Experiment 1 was centrifugally separated to collect the cells; made in house; host or cells: native producer Pimelobacter species R48 (FERM BP-4315), purified from disrupted cells
T1 sequence (P72235 1-573): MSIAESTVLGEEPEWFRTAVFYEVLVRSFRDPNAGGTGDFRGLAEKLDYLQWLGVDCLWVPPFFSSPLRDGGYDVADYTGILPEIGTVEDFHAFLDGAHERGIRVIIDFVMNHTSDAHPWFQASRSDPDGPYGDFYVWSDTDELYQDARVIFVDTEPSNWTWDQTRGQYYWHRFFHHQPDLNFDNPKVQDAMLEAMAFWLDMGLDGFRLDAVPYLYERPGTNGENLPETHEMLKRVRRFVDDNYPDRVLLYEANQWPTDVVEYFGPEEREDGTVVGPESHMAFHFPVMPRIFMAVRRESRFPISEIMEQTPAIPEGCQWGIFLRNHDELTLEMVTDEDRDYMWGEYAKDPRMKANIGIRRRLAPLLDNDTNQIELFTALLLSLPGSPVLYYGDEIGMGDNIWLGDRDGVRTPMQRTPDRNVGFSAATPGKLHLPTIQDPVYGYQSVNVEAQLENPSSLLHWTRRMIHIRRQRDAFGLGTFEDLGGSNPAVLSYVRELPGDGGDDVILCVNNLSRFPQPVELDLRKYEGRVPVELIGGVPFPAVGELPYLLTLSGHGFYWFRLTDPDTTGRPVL
Briefly: Inhibition of enzymatic activity. The class given is biochemical. On the procedure:
as §1
Effects of temperature and pH on the activity of the enzyme were investigated in accordance with the assay method. […] The thermal stability of the enzyme was determined by incubating the enzyme in 50 mM phosphate buffer (pH7.0) at different temperatures for 60 minutes, cooling with water and assaying the residual activities. While the pH stability was determined by incubating at 20° C. for 60 minutes in 50 mM phosphate buffer with different pH levels, adjusting to pH7.0 and assaying the residual enzyme activities.

Series [3] addresses T2, maltose/trehalose conversion enzyme derived from Thermus aquaticus (ATCC33923) (Thermus thermophilus, UniProt O06458).
T2 construct: The culture obtained in Experiment 15 was centrifugally separated to collect the cells; made in house; host or cells: native producer Thermus aquaticus (ATCC33923), purified from disrupted cells
T2 sequence (O06458 1-963): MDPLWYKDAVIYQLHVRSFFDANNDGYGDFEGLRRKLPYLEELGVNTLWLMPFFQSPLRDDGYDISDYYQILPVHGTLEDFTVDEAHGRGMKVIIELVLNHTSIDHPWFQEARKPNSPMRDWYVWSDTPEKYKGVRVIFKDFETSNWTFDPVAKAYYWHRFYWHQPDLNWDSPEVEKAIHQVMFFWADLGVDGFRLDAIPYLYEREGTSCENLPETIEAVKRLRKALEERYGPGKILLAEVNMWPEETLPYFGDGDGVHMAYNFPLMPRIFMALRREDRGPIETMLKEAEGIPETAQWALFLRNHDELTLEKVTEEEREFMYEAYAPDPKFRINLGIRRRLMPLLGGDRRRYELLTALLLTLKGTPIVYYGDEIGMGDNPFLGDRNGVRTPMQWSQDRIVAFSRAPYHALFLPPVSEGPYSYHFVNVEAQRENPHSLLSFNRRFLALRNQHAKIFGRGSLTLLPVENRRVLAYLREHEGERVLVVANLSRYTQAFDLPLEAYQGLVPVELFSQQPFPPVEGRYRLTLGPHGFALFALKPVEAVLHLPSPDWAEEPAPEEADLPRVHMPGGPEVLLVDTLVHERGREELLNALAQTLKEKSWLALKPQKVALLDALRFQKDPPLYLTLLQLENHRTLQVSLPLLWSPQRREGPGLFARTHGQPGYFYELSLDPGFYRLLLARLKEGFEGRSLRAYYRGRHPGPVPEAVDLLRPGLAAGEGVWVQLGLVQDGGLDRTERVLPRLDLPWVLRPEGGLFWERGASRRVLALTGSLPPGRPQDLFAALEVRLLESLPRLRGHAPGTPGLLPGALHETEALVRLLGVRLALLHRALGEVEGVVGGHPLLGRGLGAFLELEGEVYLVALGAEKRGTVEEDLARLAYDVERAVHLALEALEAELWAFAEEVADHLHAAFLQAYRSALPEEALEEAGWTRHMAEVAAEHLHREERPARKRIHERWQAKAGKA
Kind of series: Inhibition of enzymatic activity. The class given is biochemical. On the procedure:
as §1
Effects of temperature and pH on the activity of the enzyme were investigated in accordance with the assay method. […] The thermal stability of the enzyme was determined by incubating the enzyme in 50 mM phosphate buffer (pH7.0) at different temperatures for 60 minutes, cooling with water and assaying the residual activities. While the pH stability was determined by incubating at 60° C. for 60 minutes in 50 mM phosphate buffer with different pH levels, adjusting to pH7.0 and assaying the residual enzyme activities.

In series [4] the test system is purified enzyme from Pseudomonas putida H262. Briefly: Action on a variety of saccharides (substrate feasibility, TLC). Type of series: biochemical. Particulars: method of Experiment 4, reaction temperature 35° C. On the procedure: (§2) A variety of saccharides were tested for feasibility as substrate.
(§3) Each solution was added with 2 units/g substrate solid of a purified maltose/trehalose conversion enzyme obtained by the method in Experiment 2, adjusted to give respective substrate concentrations of 5 w/v % and reacted at 20° C. and pH7.0 for 24 hours. Before and after the reaction the solutions were subjected to thin-layer chromatography (TLC) on "[…] 60", an aluminum plate, width and length of 20 cm respectively, commercialized by Merck & Co., Inc., New Jersey, USA, to check the enzymatic action on respective saccharides. TLC was developed at ambient temperature with a mixture solvent of 1-butanol, pyridine and water (6:4:1 by volume). Coloration was carried out by first spraying 20% sulfuric acid/methanol solution, then heating at 110° C. for 10 minutes.
A variety of saccharides were tested for feasibility as substrate for the purified enzyme from Pseudomonas putida H262 obtained in Experiment 10 in accordance with the method in Experiment 4 except that the reaction temperature was set to 35° C. As the result, like the enzyme from Pimelobacter species R48, the enzyme from Pseudomonas putida H262 acted on only maltose and trehalose to convert maltose to trehalose as well as to convert trehalose to maltose.

Series [5] relates to partially-purified enzymes derived from conventional microorganisms of the genus Thermus. Kind of series: Action on a variety of saccharides, partially-purified enzymes. As to conditions: method of Experiment 18. Type of series: biochemical. The procedure: Among conventional microorganisms, the specified microorganisms which had been confirmed for production of the maltose/trehalose conversion enzyme according to the present invention were cultivated in flasks for 48 hours in accordance with the method in Experiment 15. Respective cultures were checked for enzymatic activity and then subjected to cell disrupter in accordance with the method in Experiment 16 and the supernatants were dialyzed to obtain partially-purified enzymes which were then investigated for properties in accordance with the method in Experiment 17.

In series [6] the target is T3, purified maltose/trehalose conversion enzyme from Pimelobacter species R48 (Pimelobacter sp., UniProt P72235).
T3 construct: The culture obtained in Experiment 1 was centrifugally separated to collect the cells; made in house; host or cells: native producer Pimelobacter species R48 (FERM BP-4315), purified from disrupted cells
T3 sequence (P72235 1-573): T1 sequence (P72235 1-573)
Briefly: Action on a variety of saccharides (substrate feasibility, TLC). Particulars: 20° C., pH7.0, 24 hours. The class given is biochemical. On the procedure: as §2, §3

Series [7] is described as follows: Physicochemical properties of trehalose preparations: solubility. Particulars: in 25° C. water. On the procedure:
A high-purity trehalose prepared by the method in Experiment 8 was tested for physicochemical properties. […] These physical values were in good agreement with those of a simultaneously tested commercially-available crystalline trehalose hydrate, a product of Wako Pure Chemical Industries, Ltd., Osaka, Japan.

Series [8] in a line: Test for assimilation in vivo (blood sugar and insulin levels). Particulars: healthy three men. The procedure: In accordance with the method reported by Atsuji et al., Rinsho Eiyo (Clinical Nutrition), Vol.41, No.2, pp.200-208 (1972), 30g of the high-purity trehalose, purity of 99.8%, prepared in Experiment 8 was prepared into 20 w/v % aqueous solution and orally administered to healthy three men, age of 26, 27 and 30 years, after which their bloods were periodically sampled and measured for blood sugar and insulin levels. Glucose was used as control. […] Thus the trehalose and saccharide containing the same are suitable as saccharide source for energy supplement.

In series [9] the test system is mice. Briefly: Acute toxicity test. Type of series: in vivo. Particulars: orally administered in mice, possible highest dose. On the procedure: An acute toxicity test was conducted on a high-purity trehalose prepared in Example A-6, where it was orally administered in mice. As the result, trehalose was a low toxic substance causing no death even in the possible highest dose. Thus its LD50 would be briefly 50 g/kg or higher.

Where [10] appears, read: 30 g as 20 w/v % aqueous solution, oral.

We go through 5 molecules from patent US5935636A, “Trehalose and its production and use” (Kabushiki Kaisha Hayashibara Seibutsu Kagaku Kenkyujo, priority 1994, dated 1999).

Structures can show the parent of a compound that is named as a salt. Where two headings read alike, the source gives them in different places.

Regarding `[Cu+2]` [Cu^2+], the Inhibition of activity result in series [1] (1 mM) was “Inhibited”; in [2] (1 mM), “Inhibited”; in [3] (1 mM), “Inhibited”; in series [3] (1 mM, listed as C^2+) it was “inhibited”.

Consider `[Hg+2]` [Hg^2+], for which the Inhibition of activity entry in series [1] (1 mM), in series [2] (1 mM) and in [3] (1 mM) was “Inhibited” throughout.

Turning to `OC[C@H]1O[C@H](O[C@H]2[C@H](O)[C@@H](O)[C@H](O)O[C@@H]2CO)[C@H](O)[C@@H](O)[C@@H]1O` [Maltose], the “action of the enzyme on saccharides (in words)” value in [4] and in series [6] was “acted on” throughout. Further, the “action of the enzymes on saccharides (in words)” value in series [5] is on record as “acted on”.

Regarding `NC(CO)(CO)CO` [Tris-HCl buffer, Tris-HCl], the Inhibition of activity result in [1], in [2] and in series [3] was “Inhibited” in each case.

For `OC[C@H]1O[C@H](O[C@H]2O[C@H](CO)[C@@H](O)[C@H](O)[C@H]2O)[C@H](O)[C@@H](O)[C@@H]1O` [trehalose, alpha,alpha-trehalose], the “action of the enzyme on saccharides (in words)” value in [4] and in [6] was “acted on” in each case. Also, in series [5], the “action of the enzymes on saccharides (in words)” value is listed as “acted on”. In addition, in [7], the “solubility as anhydrous substance” value worked out at 77.0 g. In addition, in series [8] (setting [10]), the “time at which blood sugar level reached maximum after administration” value was 0.5 to 1 h. Also, the “time at which insulin level reached maximum after administration” value in series [8] (setting [10]) is 0.5 to 1 h. The “digestion, absorption and utilization (in words)” value in [8] (30 g oral, glucose as control) is “readily digested and absorbed and then metabolized and utilized as energy source”. In addition, the “death in acute toxicity test” value in [9] is reported as “no death”.
